Counter-ions that a name gives are not always drawn.
Key:
[1] = biological target: T1, dopamine (DA) reuptake sites (Rattus norvegicus, UniProt P23977); assay: displacement of [3H]GBR 12935 from dopamine reuptake sites, striatal membranes; assay type: binding; conditions: 10^-6 M test compound, [3H]GBR 12935 1 nM, one test only; for inhibition at 1 µM: read-out: DA uptake (% displacement of specific binding of tritiated ligand)
T1 construct: Striatal tissue from the brains of male Charles River rats weighing 150-250 g; from tissue; host or cells: rat brain striatum (crude synaptosomes in A1, washed membranes in A4)
Description: Striatal tissue from the brains of male Charles River rats weighing 150-250 g was homogenised in ice-cold 0.32M sucrose (1:80 w/v) using a motor driven teflon pestle (12 strokes, 800 rpm) and centrifuged at 1000 g for 12 minutes. The supernatant was stored on ice and the pellet was resuspended in 0.32M sucrose (1:80 w/v) and centrifuged at 850 g for 10 minutes. Combined supernatants were diluted to 1:320 w/v with ice-cold 50 mM Tris-HCl, pH 7.4 (at 25° C.) containing 200 mM sodium chloride and 5 mM potassium chloride (Tris buffer) and centrifuged at 40,000 g for 10 minutes. The resulting pellet was resuspended in 10 ml of 50 mM Tris buffer, incubated at 37° C. for 10 min, diluted in 50 mM Tris buffer (1:320 w/v) and recentrifuged at 40,000 g for 10 minutes. The final pellet was resuspended in 50 mM Tris buffer (equivalent to 1.25 mg wet weight of tissue/ml) and used immediately in the binding assay. All centrifugations were carried out at 4° C.
Membranes (800 μl; equivalent to 1 mg wet weight of tissue/tube) were incubated with 100 μl [^3 H]GBR 12935 at a single concentration of 1 nM and 100 μl of distilled water (total binding) or 100 μl of test compound (10^-6 M) or 100 μl of mazindol (1 μM; non-specific binding) for 90 min at 4° C.
Membrane bound radioactivity was recovered by filtration under vacuum through Whatman GF/C filters, pre-soaked for 1 h in 0.5% polyethylenimine,using a Brandel cell harvester. Filters were rapidly washed with 16 ml of ice-cold 50 mM Tris-HCl, pH 7.4 and radioactivity determined by liquid scintillation counting (2 ml Packard MV Gold scintillator).
(§1) For each of these tests measuring the ability of compounds of Formula I to displace standard ligands from dopamine (DA), 5-hydroxytryptamine (5-HT) and noradrenaline (NA) reuptake sites in vitro, the percentage displacement of specific binding of tritiated ligand by 10^-6 M test compound was calculated in the following way:
(§2) Firstly, specific binding of tritiated ligand in the absence (A) and presence (B) of test compound was determined:
(§3) In the absence of compound:
(§4) A (dpm)=Total binding (dpm)-Non-specific binding (dpm)
(§5) In the presence of compound (10^-6 M):
(§6) B (dpm)=Binding at 10^-6 M (dpm)-Non-specific binding (dpm)
(§7) The specific binding of tritiated ligand in the presence (B) of compound was then converted to a percentage of specific binding of tritiated ligand in the absence (A) of compound:
(§8) % Specific binding at 10^-6 M=B (dpm)/A(dpm)×100
(§9) The percentage displacement of specific binding of trtiated ligand by the test compound (10^-6 M) was then obtained by subtraction of the percentage specific binding in the presence of compound from the percentage specific binding in the absence of compound, which is taken as the maximum binding and so equals 100%:
(§10) % Displacement at 10^-6 M=100-% Specific binding at 10^-6 M.
(§11) The values given below in Table 2 for examples 6 to 76 are % displacement of specific binding of tritiated ligand by 10^-6 M test compound and represent results from one test only. IA refers to <50% displacement.

[2] = biological target: T2, 5-hydroxytryptamine (5-HT) reuptake sites (Rattus norvegicus, UniProt P31652); assay: displacement of [3H]paroxetine from 5-HT reuptake sites, frontal cortical membranes; assay type: binding; conditions: 10^-6 M test compound, [3H]paroxetine 30 pM, one test only; for inhibition at 1 µM: read-out: 5-HT uptake (% displacement of specific binding of tritiated ligand)
T2 construct: Frontal cortical tissue from the brains of male Sprague-Dawley rats; from tissue; host or cells: rat brain frontal cortex (crude synaptosomes in A2, washed membranes in A5)
Description: Frontal cortical tissue from the brains of male Charles River rats weighing 150-250 g was homogenised in ice-cold 0.25M sucrose (1:30 w/v) using a Kinematic polytron (speed setting 6 for 30 seconds) and centrifuged at 1000 g for 12 minutes. The supernatant was stored on ice and the pellet was resuspended in 0.25M sucrose (1:20 w/v) and centrifuged at 850 g for 10 minutes. Combined supernatants were diluted to 1:100 w/v with ice-cold 50 mM Tris-HCl, pH 7.5 (at 25° C.) containing 120 mM sodium chloride and 5 mM potassium chloride (Tris buffer) and centrifuged at 40,000 g for 10 minutes. The resulting pellet was resuspended in 50 mM Tris buffer (1:100 w/v) and recentrifuged at 40,000 g for 10 minutes. The final pellet was resuspended in 50 mM Tris buffer (equivalent to 2 mg wet weight of tissue/ml) and used immediately in the binding assay. All centrifugations were carried out at 4° C.
Membranes (1000 μl; equivalent to 2 mg wet weight of tissue/tube) were incubated with 200 μl [^3 H]paroxetine at a single concentration of 30 pM and 200 μl of distilled water (total binding) or 200 μl of test compound (10^-6 M) or 200 μl of citalopram (1 μM; non-specific binding) for 2 h at 22° C.
Membrane bound radioactivity was recovered by filtration under vacuum through Whatman GFIC filters using a Brandel cell harvester. Filters were rapidly washed with 16 ml ice-cold 50 mM Tris buffer and radioactivity determined by liquid scintillation counting (2 ml Packard MV Gold scintillator).
as §1, §2, §3, §4, §5, §6, §7, §8, §9, §10, §11

[3] = biological target: T3, noradrenaline (NA) reuptake sites (Rattus norvegicus, UniProt Q63380); assay: displacement of [3H]nisoxetine from noradrenaline reuptake sites, frontal cortical membranes; conditions: 10^-6 M test compound, [3H]nisoxetine 0.6 nM, one test only, read-out: NA uptake (% displacement of specific binding of tritiated ligand)
T3 construct: Frontal cortical tissue from the brains of male Sprague-Dawley rats; from tissue; host or cells: rat brain frontal cortex (crude synaptosomes in A3, washed membranes in A6)
Description: Frontal cortical tissue from the brains of male Charles River rats weighing 150-250 g was homogenised in ice-cold 50 mM Tris-HCl, pH 7.4 (at 25° C.) containing 120 mM sodium chloride and 5 mM potassium chloride (Tris buffer; 1:60 w/v) using a Kinematic polytron (speed setting 6 for 30 seconds) and centrifuged at 40,000 g for 10 minutes. The supernatant was discarded and the pellet rehomogenised in Tris buffer, 1:60 w/v, and centrifuged at 40,000 g for 10 minutes. This step was repeated twice more so that, in total, the brain tissue was homogenised and centrifuged four times. The final pellet was resuspended in 50 mM Tris-HCl, pH 7.4 containing 300 mM sodium chloride and 5 mM potassium chloride (equivalent to 25 mg wet weight of tissue/ml) and used immediately in the binding assay. All centrifugations were performed at 4° C.
Membranes (400 μl; equivalent to 10 mg wet weight of tissue/tube) were incubated with 50 μl [^3 H]nisoxetine at a single concentration of 0.6 nM and 50 μl of distilled water (total binding) or 50 μl of test compound (10^-6 M) or 50 μl of mazindol (1 μM; non-specific binding) for 4 h at 4° C.
Membrane bound radioactivity was recovered by filtration under vacuum through Skatron 11734 filters using a Skatron cell harvester. Filters were rapidly washed with ice-cold 50 mM Tris-HCl, pH 7.4 containing 120 mM sodium chloride and 5 mM potassium chloride (wash setting 9,9,0) and radioactivity determined by liquid scintillation counting (1 ml Packard MV Gold scintillator).
as §1, §2, §3, §4, §5, §6, §7, §8, §9, §10, §11

T3 sequence (Q63380 1-617): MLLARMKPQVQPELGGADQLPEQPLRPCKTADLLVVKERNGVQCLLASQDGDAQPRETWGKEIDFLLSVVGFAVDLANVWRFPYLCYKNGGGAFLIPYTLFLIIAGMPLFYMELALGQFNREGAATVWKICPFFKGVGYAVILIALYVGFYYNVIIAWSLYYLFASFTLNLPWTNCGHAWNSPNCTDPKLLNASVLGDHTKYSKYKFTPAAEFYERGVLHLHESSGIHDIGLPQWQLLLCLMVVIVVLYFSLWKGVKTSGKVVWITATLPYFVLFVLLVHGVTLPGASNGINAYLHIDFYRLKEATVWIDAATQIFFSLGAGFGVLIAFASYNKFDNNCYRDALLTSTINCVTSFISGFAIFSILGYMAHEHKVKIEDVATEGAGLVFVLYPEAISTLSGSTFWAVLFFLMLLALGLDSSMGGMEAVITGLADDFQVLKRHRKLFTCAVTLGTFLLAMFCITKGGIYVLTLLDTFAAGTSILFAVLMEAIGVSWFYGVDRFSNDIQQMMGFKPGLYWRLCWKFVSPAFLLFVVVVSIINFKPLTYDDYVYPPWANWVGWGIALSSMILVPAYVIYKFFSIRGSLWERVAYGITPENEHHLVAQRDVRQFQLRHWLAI
T1 sequence (P23977 whole entry): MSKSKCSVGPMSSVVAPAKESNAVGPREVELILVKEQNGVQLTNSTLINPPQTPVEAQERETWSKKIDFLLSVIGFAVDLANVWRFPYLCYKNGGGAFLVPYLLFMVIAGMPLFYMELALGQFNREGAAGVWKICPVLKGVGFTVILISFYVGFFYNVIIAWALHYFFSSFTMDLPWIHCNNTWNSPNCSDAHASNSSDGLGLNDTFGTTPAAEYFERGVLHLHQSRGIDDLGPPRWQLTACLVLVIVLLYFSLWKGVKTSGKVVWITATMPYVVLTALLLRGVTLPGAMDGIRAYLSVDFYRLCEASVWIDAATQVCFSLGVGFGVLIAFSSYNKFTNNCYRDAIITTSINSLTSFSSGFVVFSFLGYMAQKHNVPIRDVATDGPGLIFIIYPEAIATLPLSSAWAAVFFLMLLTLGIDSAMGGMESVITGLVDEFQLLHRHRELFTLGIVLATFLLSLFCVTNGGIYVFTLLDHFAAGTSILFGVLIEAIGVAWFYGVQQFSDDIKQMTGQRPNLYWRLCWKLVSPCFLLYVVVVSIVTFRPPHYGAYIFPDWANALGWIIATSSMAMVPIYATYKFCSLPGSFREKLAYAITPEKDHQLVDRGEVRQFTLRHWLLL
T2 sequence (P31652 whole entry): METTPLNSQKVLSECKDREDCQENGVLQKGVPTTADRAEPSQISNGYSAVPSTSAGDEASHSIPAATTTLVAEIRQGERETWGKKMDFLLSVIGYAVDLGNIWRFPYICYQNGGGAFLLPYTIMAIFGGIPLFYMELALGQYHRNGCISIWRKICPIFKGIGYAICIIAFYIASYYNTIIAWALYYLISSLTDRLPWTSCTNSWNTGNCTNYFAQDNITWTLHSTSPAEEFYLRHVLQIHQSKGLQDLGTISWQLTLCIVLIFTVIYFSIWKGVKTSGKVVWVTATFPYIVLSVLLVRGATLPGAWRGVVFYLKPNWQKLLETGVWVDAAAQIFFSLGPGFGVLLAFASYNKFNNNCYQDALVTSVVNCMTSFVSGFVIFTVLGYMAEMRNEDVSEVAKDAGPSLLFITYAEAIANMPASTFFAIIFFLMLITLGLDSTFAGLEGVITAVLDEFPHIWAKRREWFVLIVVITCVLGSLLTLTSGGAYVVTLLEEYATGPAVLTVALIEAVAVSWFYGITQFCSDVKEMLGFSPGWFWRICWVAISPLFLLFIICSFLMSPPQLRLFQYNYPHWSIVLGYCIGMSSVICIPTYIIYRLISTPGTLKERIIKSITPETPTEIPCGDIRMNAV

Row | SMILES | inhibition at 1 µM [1] | inhibition at 1 µM [2] | inhibition at 1 µM [3] | DA uptake (% displacement of specific binding of tritiated ligand) ([1]; hydrobromide, 1 µM) | 5-HT uptake (% displacement of specific binding of tritiated ligand) ([2]; 1 µM, hydrobromide)
1 | CCCCN=c1scc(C2(c3ccc(SC)cc3)CCC2)n1CCCC [Example 58, 3-Butyl-2-butylimino-4-[1-(4-methylthiophenyl)cyclobutyl]-2,3-dihydrothiazole hydrobromide] | 92% | < 50% | < 50% | – | –
2 | CN=c1scc(C2(c3ccc(Cl)c(Cl)c3)CCC2)n1C [Example 14, 4-[1-(3,4-Dichlorophenyl)cyclobutyl]-3-methyl-2-methylimino-2,3 dihydrothiazole hydrobromide] | 103% | 96% | 80% | – | –
3 | Clc1ccc(C2(c3csc(=NCc4ccco4)n3Cc3ccco3)CCC2)cc1Cl [Example 26, 4-[1-(3,4-Dichlorophenyl)cyclobutyl]-3-furfuryl-2-furfurylimino-2,3-dihydrothiazole hydrobromide] | 116% | 92% | < 50% | – | –
4 | c1ccc2cc(C3(c4csc(=NCC5CC5)n4CC4CC4)CCC3)ccc2c1 [Example 43, 3-Cyclopropylmethyl-2-cyclopropylmethylimino4-[1-(2-naphthyl)cyclobutyl]-2,3-dihydrothiazole hydrobromide] | 113% | 101% | 93% | – | –
5 | Clc1ccc(C2(c3csc(=NCCc4ccccc4)n3CCc3ccccc3)CCC2)cc1 [Example 64, 4-[1-(4-Chlorophenyl)cyclobutyl]-3-phenethyl-2-phenethylimino-2,3-dihydrothiazole hydrobromide] | 102% | < 50% | < 50% | – | –
6 | COc1ccc(CCN=c2scc(C3(c4ccccc4)CCCCC3)n2CCc2ccc(OC)c(OC)c2)cc1OC [Example 68, 3-(3,4-Dimethoxyphenethyl)-2-(3,4-dimethoxyphenethylimino)-4-(1-phenylcyclohexyl)-2,3-dihydrothiazole hydrobromide] | 65% | < 50% | < 50% | – | –
7 | Clc1ccc(C2(C3=C(c4ccccc4)SC4=NCCN43)CCC2)cc1Cl [Example 9, 3-[1-(3,4-dichlorophenyl)cyclobutyl]-2-phenyl-5,6-dihydroimidazo[2,1-b]thiazole hydrobromide] | 60% | 75% | < 50% | – | –
8 | C1=C(C2(c3ccc4ccccc4c3)CCC2)N2CCCN=C2S1 [Example 34, 3-[1-(2-Naphthyl)cyclobutyl]-6,7-dihydro-5H-thiazolo[3,2-a]pyrimidine hydrobromide] | 109% | 100% | 110% | – | –
9 | c1cncc(CN=c2scc(C3(c4ccc5ccccc5c4)CCC3)n2Cc2cccnc2)c1 [Example 47, 4-[1-(2-Naphthyl)cyclobutyl]-3-(3-pyridylmethyl)-2-(3-pyridylmethylimino)-2,3-dihydrothiazole hydrobromide] | 109% | 99% | 92% | – | –
10 | Brc1ccc(C2(C3=CSC4=NCCN34)CCC2)cc1 [Example 70, 3-[1-(4-Bromophenyl)cyclobutyl]-5,6-dihydroimidazo[2,1-b]thiazole hydrobromide] | 80% | < 50% | 52% | – | –
11 | CC(C)(C1=CSC2=NCCN12)c1ccc(Cl)cc1 [Example 73, 3-[1-(4-Chlorophenyl)-1-methylethyl]-5,6-dihydroimidazo[2,1-b]thiazole hydrobromide] | 59% | < 50% | < 50% | – | –
12 | c1coc(CN=c2scc(C3(c4ccc5ccccc5c4)CCC3)n2Cc2ccco2)c1 [Example 48, 3-Furfuryl-2-furfurylimino-4-[1-(2-naphthyl)cyclobutyl]-2,3-dihydrothiazolehydrobromide] | 101% | 94% | < 50% | – | –
13 | COc1ccc(CCN=c2scc(C3(c4ccc(Br)cc4)CCC3)n2CCc2ccc(OC)c(OC)c2)cc1OC [Example 66, 4-[1-(4-Bromophenyl)cyclobutyl]-3-(3,4-dimethoxyphenethyl)-2-(3,4-dimethoxyphenethylimino)-2,3-dihydrothiazole hydrobromide] | 58% | < 50% | < 50% | – | –
14 | CC(C)CN=c1scc(C2(c3ccc4ccccc4c3)CCC2)n1CC(C)C [Example 41, 3-lsobutyl-2-isobutylimino-4-[1-(2-naphthyl)cyclobutyl]-2,3-dihydrothiazolehydrobromide] | 107% | 98% | 79% | – | –
15 | Clc1ccc(C2(c3csc(=NCc4ccccc4)n3Cc3ccccc3)CCC2)cc1Cl [Example 22, 3-Benzyl-2-benzylimino-4-[1-(3,4-dichlorophenyl)cyclobutyl]-2,3-dihydrothiazole hydrobromide] | 79% | < 50% | < 50% | – | –
16 | Br.CC(C)(C1=CSC2=NCCN12)c1ccc(Cl)c(Cl)c1 [Example 74, 3-[1-(3,4-Dichlorophenyl)-1-methylethyl]-5,6-dihydroimidazo[2,1-b]thiazole hydrobromide] | – | – | – | 97% | 52%
